Assay results taken from article doi:10.1101/2023.08.23.554426v1 (biorxiv, 2023).

How the values were obtained:
Settings in all cases: read-out: K1; phosphate buffer pH 7.6, 25 °C; stronger site of two-site fit
PfRKIP [1] = biological target: T1, PfRKIP (Plasmodium falciparum, UniProt Q7KQK1); test: ITC, sequential binding model
T1 sequence (Q7KQK1 1-190): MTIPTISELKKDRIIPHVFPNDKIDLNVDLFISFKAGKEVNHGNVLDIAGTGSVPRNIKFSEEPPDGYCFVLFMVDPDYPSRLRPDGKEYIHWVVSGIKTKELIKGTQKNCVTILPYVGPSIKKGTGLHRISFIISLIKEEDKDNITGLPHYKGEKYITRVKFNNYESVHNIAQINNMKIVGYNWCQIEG

HsRKIP = HsRKIP (Homo sapiens, UniProt P30086); test: ITC, sequential binding model
PfRKIP [2] = biological target: PfRKIP (Plasmodium falciparum, UniProt Q7KQK1, H92A)
PfRKIP [3] = biological target: PfRKIP (Plasmodium falciparum, UniProt Q7KQK1, S96A)
PfRKIP [4] = biological target: PfRKIP (Plasmodium falciparum, UniProt Q7KQK1, P80L)

Sequence of HsRKIP (P30086 whole entry): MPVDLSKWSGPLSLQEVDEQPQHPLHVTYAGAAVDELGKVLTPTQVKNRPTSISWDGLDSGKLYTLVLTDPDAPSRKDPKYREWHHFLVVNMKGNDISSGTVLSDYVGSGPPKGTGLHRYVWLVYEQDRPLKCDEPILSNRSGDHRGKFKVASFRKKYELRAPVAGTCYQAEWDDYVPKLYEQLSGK

Structure (SMILES): CCCCCCCCCCCCCCCC(=O)OC[C@H](COP(=O)(O)O[C@@H]1[C@H](O)[C@H](OP(=O)(O)O)[C@@H](O)[C@H](O)[C@H]1O)OC(=O)CCCCCCCCCCCCCCC [PtdIns(3)P]
- Kd (PfRKIP [1]): 11.5 µM
- Kd (HsRKIP): 43.5 µM
- Kd (PfRKIP [2]): 15.6 µM
- Kd (PfRKIP [3]): 15.6 µM
- Kd (PfRKIP [4]): 109 µM
